What was measured:
M14 melanoma cells = experiment: Change in viable cell numbers of M14 melanoma cells over the treatment period (FIG. 9); assay type: cell-based; conditions: 100 μM, 24 h, untreated cells gained 96% viable cells
Procedure: FIG. 9. First panel: Single cell functional proteomics data indicates functional heterogeneity when comparing the effects of free and nanoparticulate MBEH on cellular functions among live cells. Adherent M14 melanoma cells were incubated for 24 h with 100 μM of free MBEH (a), nanoparticulate monobenzone with lauroyl MBEH-loaded liposomes (b), MBEH-loaded MOF nanoparticles (c) or vehicle alone (d) before being harvested and loaded into individual wells of the respective Isocode chips (˜30,000 cells/sample) to measure the presence of phosphorylated proteins among individual, live cells by IsoPlexis functional proteomics. […] The decreases in cell-proliferation pathways are even more than those observed in cells that have been exposed to the free MBEH. The individual phosphoproteins measured (results are shown for ˜300 live, single cells per group) are categorized as shown in the legend. The most profound effect on cell signaling was found in presence of long-tailed MBEH. Over the treatment period, untreated cells gained 96% viable cells, whereas cell numbers were reduced by 45, 29 and 1% respectively in response to the free drug, MBEH-loaded MOFs and liposomes loaded with lauroyl MBEH, respectively. Functional heterogeneity among treatments was driven by PARP, P-eIF4α and ribosomal P-S6. Second panel: Viability changes of M14 melanoma cells shown between 24-48 h of treatment. […]

[1] = cited from earlier work
[2] = system: Transfected HEK cells and B16-F10 melanoma cells; experiment: MTT cytotoxicity in HEK cells transfected with melanosomal enzymes and in B16-F10 cells (FIG. 3); assay type: cell-based; conditions: 250 μM, 24 h, MTT assay
Procedure: Transfected HEK cells and B16-F10 melanoma cells were exposed to 250 μM of MBEH for 24 h before cytotoxicity was measured via MTT assay.

B16-F10 tumors = experiment: CD8 T cell infiltration in B16-F10 tumors of mice pretreated topically (FIG. 6); assay type: in vivo, mouse; conditions: mice pretreated topically with 1.5 M MBEH vs without; n=3, p<0.01
B16 melanoma cells = experiment: cells; conditions: Mus musculus, B16, 24 h, read-out: half-maximum cytotoxicity (IC50) concentration
Procedure: FIG. 8. […] Free MBEH or lauroyl-MBEH-loaded liposomes were added to B16 melanoma cells in culture. After 24 h, the viability among the remaining cells was measured at different nanoparticle concentrations.

[3] = system: TRP-1+ melanocytes in C57BL/6 skin; experiment: Detection of TRP-1+ melanocytes in topically treated mouse skin (FIG. 2); assay type: in vivo; conditions: 1.5 M topical for 6 weeks
From the text: FIG. 2. Melanocytes are undetectable in mouse skin topically treated with MBEH. TRP-1^+ melanocytes (arrows) are detected in control animals but not in C57BL/6 skin treated with 1.5 M MBEH for 6 weeks.

[4] = system: B16-F10 mouse melanoma cells; experiment: Tumor volumes in mice pretreated topically and challenged with B16-F10 cells (FIG. 1); assay type: in vivo; conditions: 1.5 M topical for 3 weeks before challenge with 5×10^5 B16-F10 cells; p<0.05

In the case of `Oc1ccc(OCc2ccccc2)cc1` [MBEH, monobenzyl ether of hydroquinone], the “cell numbers reduced over the treatment period” value (M14 melanoma cells) is listed as 45%, the solubility in water [1] is listed as “highly insoluble in water” and the “cytotoxicity mediated by melanosomal enzymes” value [2] is listed as “All enzymes but MART-1 can mediate cytotoxicity”. For the same compound, the “number of cytotoxic (CD8) T cells in tumors, enhancement after exposure” value (B16-F10 tumors) was 4.7 fold, the IC50 (B16 melanoma cells) was ~500 µM and the “TRP-1+ melanocytes in skin” value [3] was “undetectable”. The “tumor growth (tumor volumes)” value [4] was “prevents tumor growth”.

From patent publication US20240408214A1, “NANOPARTICULATE MONOBENZONE FOR TREATING MELANOMA” (Northwestern University, priority 2021, published 2024)
